Data on five molecules can be found in patent publication US4031198A, “Technetium-labeled complexes, production and use thereof” (priority 1974, dated 1977).

Series [1] can be described thus: Partition coefficient of Tc complexes, water/n-octyl alcohol, by radioactivity. Format: physicochemical. Particulars: water/n-octanol. From the text: These partition coefficient studies involve plotting pH vs. The natural logarithm of the ratio of the activity in water to the activity in normal octyl alcohol, hereinafter referred to as ln(aw /ao). In the pH range of 5 to 8, the complex should not be so lipophilic as to have an ln(aw /ao) of less than -2, particularly at the higher pH levels. On the other hand, the hydrophilicity must also be kept within limits, as the following table illustrates:
Acid, salt, hydroxyl, amino or other polar groups present on the complexing agent molecule can provide a water solubilizing or hydrophilic effect which is reflected in higher ln aw /ao values, but due regard must be accorded to the variety of fluids, organs and tissues in mammals, each of which can have a distinctively acidic or basic environment, ranging from, for example, the low pH of the stomach to the relatively high pH of the intestines. The blood is on the mildly alkaline side at pH = 7.4. Thus, partition coefficient data on the Tc-complexes of this invention are preferably obtained throughout the pH range of 5 to 8. The use of partition coefficient data in pharmacology is well-established; see Andrejus Korolkvas, Essentials of Molecular Pharmacology, Wiley (interscience), N.Y., N.Y., 1970. […] Natural logarithms of partition coefficients are tabulated in several of the Examples which follow.
Partition coefficients for the Tc-DHT complex of this Example were determined with a water/n-octyl alcohol system over the pH range of 5 to 8 using radioactive measurements to determine the amount of Tc-99m in each phase. The expression aw /ao is the ratio of the activity in water to the activity in n-octyl alcohol. For comparison, partition coefficients over the same pH range were determined for sodium 99m pertechnetate and cysteine (HS-CH2 CH(NH2)COOH).
The aw /ao ratios for the 99mTc-4-mercaptobutanol complex were determined as in Example 1, except that two independently determined ln(aw /ao) vs. pH plots were averaged.
The aw /ao ratios for the Tc 99m complex of this Example were determined as in Example 1. The results (ln data accurate to ± 0.5) were as follows:
A series of Tc-99m complexes were made by reducing NaTcO4 and reacting the reduced Tc-99m species with the following aliphatic mercapto alcohols:
Partition coefficients were determined as in Examples 1, 3, and 5 in Tables II, III, and VI.

Series [2] can be described thus: In vivo study of liver or gall-bladder specificity.

On to `OCCS` [2-mercapto-ethanol], for which the “Ln of partition coefficient, ln(aw /ao)” value is given as -0.9 in series [1] (pH 5), -0.8 in series [1] (pH 6), -0.7 in series [1] (pH 7) and -0.6 in series [1] (pH 8).

Take `OCCCS` [3-mercapto propanol]: the “Ln of partition coefficient, ln(aw /ao)” value is on record as -0.5 in series [1] (pH 5), -0.4 in series [1] (pH 6), -0.3 in series [1] (pH 7) and -0.2 in series [1] (pH 8).

The term logD denotes the decadic logarithm of the distribution of all forms, ionised or not, between an organic phase and buffer at a given pH. Consider `CC(C)(O)CCS` [4-mercapto-2-methyl-2-butanol], for which the pH-dependent lipophilicity (logD) turned out to be 1 in series [1] (pH 5), 1.1 in series [1] (pH 6), 1.2 in series [1] (pH 7) and 1.3 in series [1] (pH 8).

Turning to `OCCCCCS` [5-mercapto pentanol], the pH-dependent lipophilicity (logD) was -0.2 in series [1] (pH 5), -0.1 in series [1] (pH 6), -0.1 in series [1] (pH 7) and 0 in series [1] (pH 8).

Regarding `[Na+].[O]=[99Tc](=[O])(=[O])[O-]` [Na99mTcO4, sodium 99m pertechnetate, reference compound], the “Ln of partition coefficient, ln(aw /ao)” value in series [1] (pH 5) was “+3.2”; in series [1] (pH 6), “+3.3”; in series [1] (pH 7) it was “+3.5”; in series [1] (pH 8), “+3.6”. Besides, the “liver or gall-bladder specificity” value in series [2] was “insufficient liver or gall-bladder specificity”.
